# According to PMC11208559 (Scientific Reports, 2024):
# Where a name gives a salt, the structure may show the parent alone.
# How the values were obtained:
# CD-1 mice [1] = assay: Morphine anti-nociceptive tolerance and tolerance rescue (tail flick); type: in vivo; conditions: for A50 of morphine, Day 1 of tolerance regimen / A50 of morphine, Day 4 of tolerance regimen: twice daily 1–10 mg/kg morphine s.c., 95% CI in parentheses
# Method: (§1) Pre-injection tail-flick baselines were determined in a 52 °C tail-flick assay with a 10-s cutoff time (method also reported in Ref.[13]). […] No animals were excluded from these studies.
# CD-1 mice [2] = assay: 52 °C tail-flick assay, morphine anti-nociception after Hsp90 inhibitor treatment; type: in vivo
# Method: as §1
# CD-1 mice [3] = assay: Post-surgical paw incision, mechanical allodynia (von Frey), morphine anti-nociception; type: in vivo
# Method: Mechanical thresholds were determined prior to surgery using calibrated von Frey filaments (Ugo Basile, Varese, Italy) with the up-down method and four measurements after the first response per mouse as in Ref.[27] and our previously published work (e.g. Ref.[28]). The mice were housed in a homemade apparatus with Plexiglas walls and ceiling and a wire mesh floor (3-inch wide 4-inch long 3-inch high with 0.25-inch wire mesh). The surgery was then performed by anesthesia with ~ 2% isoflurane in standard air, preparation of the left plantar hind paw with iodine and 70% ethanol, and a 5-mm incision made through the skin and fascia with a no. 11 scalpel. The muscle was elevated with curved forceps leaving the origin and insertion intact, and the muscle was split lengthwise using the scalpel. The wound was then closed with 5–0 polyglycolic acid sutures. Mice were then injected with inhibitor or Vehicle control and left to recover for 24 h. Our intrathecal (i.t.) injection protocol is reported in Refs.[13],[29]; briefly, the injection was made in awake and restrained animals with a 10 μL Hamilton syringe and 30 g needle (5–7 μL volume) between the L5-L6 vertebrae at a 45° angle, with placement validated by tail twitch. Since the injection was made through skin with no incision or other surgical intervention, repeated injection protocols were performed the same way. The next day, the mechanical threshold was again determined as described above. […] . No animals were excluded from these studies.
# CD-1 mice [4] = assay: HIV peripheral neuropathy (gp120), mechanical threshold, morphine anti-nociception; type: in vivo; conditions: for A50 (morphine anti-nociceptive potency), HIV neuropathy: %MPE, 95% CI in parentheses
# Method: Mechanical threshold baselines were measured prior to any treatment on the left hind paw using von Frey filaments. HIV peripheral neuropathy was induced by intrathecal injection of gp120 IIIb protein (SPEED BioSystems, Gaithersburg, MD, Cat# YCP1549, 15 ng/μl in 0.1 M PBS and 0.1% BSA, 7-μl volume) using our previously established protocol[13] on days 1, 3, and 5. On day 20 a second mechanical threshold baseline was measured on the left hind paw using von Frey filaments and then KU-32 or Vehicle was injected i.t with a 24-h treatment time. […] . No animals were excluded from these studies.
# [5] = target: T1, human kappa opioid receptor (Homo sapiens, UniProt P41145); assay: Competition radioligand binding vs 3H-diprenorphine, kappa opioid receptor; conditions: up to a 10 μM concentration
# T1 construct: membrane protein
# human mu opioid receptor = target: T2, human mu opioid receptor (Homo sapiens, UniProt P35372); type: binding; conditions: up to a 10 μM concentration
# T2 construct: membrane protein
# in vitro [6] = type: in vitro ADME, CD-1 mice; conditions: male, CD-1, mouse, microsomes
# Method: (§2) Metabolic stability of lead compounds was assessed in vitro by the method of Di et al.[32]. Briefly, mouse liver microsomes (Corning Life Sciences, Woburn, MA) were isolated from CD-1 mice (male mice, 8 − 10 weeks of age). Assays were conducted using 0.123 mg/mL protein concentration (total protein concentration in the microsomal solution) and 1.0 μM drug concentration under incubation conditions of 37 °C. Metabolic stability was determined following 0, 5, 15, 30, and 60 min of incubation time. The samples were analyzed by reversed phase LC using a triple quadrupole mass spectrometer. Compound specific transitions of parent ion to product ion were monitored and percent remaining calculated based on peak area of 5 − 60 min time points (relative to time zero). Half-life calculations were determined using the formula t½ = − ln(2)/k, where k (min^−1) is the turnover rate constant (the slope) estimated from a log − linear regression of the percentage compound remaining versus time.
# LC − MS/MS analysis was conducted using an Agilent (Santa Clara, CA) 6460 triple quadrupole mass spectrometer coupled with an Agilent liquid chromatography (LC) system. The LC system consists of a binary pump, degasser, column heater, and autosampler. […]
# in vitro [7] = type: in vitro ADME; conditions: male, human, microsomes
# Method: as §2
# Metabolic stability of the compounds in human liver microsomes was determined by the method described above using pooled human liver microsome preparations from 20 male donors (Corning Life Sciences, Woburn, MA). Assays were conducted as described above and the in vitro half-life of the compounds was calculated. […]
# CD-1 mice [8] = conditions: mouse, in vivo
# [9] = target: T3, human delta opioid receptor (Homo sapiens, UniProt P41143); assay: Competition radioligand binding vs 3H-diprenorphine, delta opioid receptor; conditions: up to a 10 μM concentration
# T3 construct: membrane protein
# physchem = type: physicochemical
# Method: Distribution coefficient (LogD) was determined by the method of Wilson et al.[30]. Briefly, 5 µL volumes of test compounds diluted in DMSO were added to a mixture of equal volumes of 50 mM phosphate buffer and 1-octanol. The compounds were assayed using a 50 nM concentration in order to limit compound precipitation and to ensure that the assay values were maintained within the dynamic range of the LC–MS/MS instrumentation. Samples were vortex mixed at 800 rpm for 24 h. Subsequent to centrifugation at 14,000 rpm for 30 min, 1 µL of each layer was analyzed by LC–MS/MS. LogD was calculated using the peak areas obtained from each layer.
# LC − MS/MS analysis was conducted using an Agilent (Santa Clara, CA) 6460 triple quadrupole mass spectrometer coupled with an Agilent liquid chromatography (LC) system. The LC system consists of a binary pump, degasser, column heater, and autosampler. Chromatographic separation was performed on a Waters Atlantis T3 3 µm 3.0 × 50 mm analytical column using a ballistic gradient of mobile phase consisting of 0.1% formic acid in water (A) and 0.1% formic acid in acetonitrile (B) at a flow rate of 0.75 mL/min. The mobile phase was heated to a temperature of 45 °C.
# CD-1 mice [10] = assay: Opioid induced constipation (fecal production over 6 h)
# CD-1 mice [11] = assay: Conditioned place preference (morphine reward); conditions: Vehicle i.t. over 4 days with 3.2–10 mg/kg morphine s.c.; 95% CI in parentheses
# [12] = daily 0.01 nmol KU-32 i.t., tail flick
# [13] = 0.01 nmol KU-32 i.t. vs Vehicle
compound,measurement,setting,value
CO[C@@H]1[C@@H](O)[C@@H](O)[C@H](Oc2ccc3cc(NC(C)=O)c(=O)oc3c2C)OC1(C)C [KU-32],baseline nociception (tail flick baseline responses),"CD-1 mice [1]; 0.01 nmol i.t. daily, 7-day regimen",not altering baseline nociception
same,rescue of established morphine tolerance,"CD-1 mice [1]; 3 days twice daily 10 mg/kg morphine s.c., 0.01 nmol i.t. on day 3, 24 h, 10 mg/kg morphine on day 4","full anti-nociceptive response to morphine, comparable to their day 1 response"
same,"A50 of morphine, Day 1 of tolerance regimen",CD-1 mice [1]; [12],1.9 (1.3–2.5) mg/kg
same,"A50 of morphine, Day 4 of tolerance regimen",CD-1 mice [1]; [12],5.5 (3.5–12) mg/kg
same,"fold increase in morphine potency, tail flick",CD-1 mice [2]; [13],1.9 fold
same,"A50 (morphine anti-nociceptive potency), tail flick","CD-1 mice [2]; 0.01 nmol KU-32 i.t., 24 h, then 1–10 mg/kg morphine s.c., %MPE, 95% CI in parentheses",1.6 (1.3–2.0) mg/kg
same,"fold increase in morphine potency, paw incision",CD-1 mice [3]; [13],2.8 fold
same,"A50 (morphine anti-nociceptive potency), paw incision","CD-1 mice [3]; 0.01 nmol KU-32 i.t., 24 h, then 0.32–5.6 mg/kg morphine s.c., %MPE, 95% CI in parentheses",0.85 (0.64–1.1) mg/kg
same,"A50 (morphine anti-nociceptive potency), HIV neuropathy","CD-1 mice [4]; 0.01 nmol KU-32 i.t. on day 20, 24 h, then 0.32–10 mg/kg morphine s.c.",1.2 (0.87–1.5) mg/kg
same,"fold increase in morphine potency, HIV neuropathy",CD-1 mice [4]; [13],3.5 fold
Cc1ccc(Sc2cc(C(=O)N3Cc4ccccc4C3)ccc2O)cc1C [KUNA115],"effect on morphine tail flick anti-nociception, isoform-selective inhibitor i.t.","CD-1 mice [2]; 0.01 nmol i.t., 24 h, then 3.2 mg/kg morphine s.c.",significant anti-nociceptive elevation
same,"effect of systemic Hsp90α inhibitor on morphine anti-nociception, paw incision","CD-1 mice [3]; 1 mg/kg i.v., 24 h, then 3.2 mg/kg morphine s.c.",completely blocked anti-nociception
CCCc1cc2cc(-n3nc(C)c4c3CC(C)(C)CC4=O)cc(N3CCC(O)CC3)c2c(=O)[nH]1 [KUNB106],"rescue of established morphine tolerance, systemic inhibitor","CD-1 mice [1]; 3 days twice daily 10 mg/kg morphine s.c., 1 mg/kg i.v. on day 3, 24 h, 10 mg/kg morphine s.c., tail flick",rescued established tolerance
same,naloxone reversibility of inhibitor-enhanced morphine pain relief,"CD-1 mice [2]; 1 mg/kg i.v., 24 h, 2 mg/kg naloxone i.p. 10 min, 3.2 mg/kg morphine s.c., tail flick",fully naloxone-reversible
same,"A50 (morphine anti-nociceptive potency), tail flick, systemic inhibitor","CD-1 mice [2]; 1 mg/kg inhibitor i.v., 24 h, then 1–5.6 mg/kg morphine s.c., peak %MPE, 95% CI in parentheses",1.7 (1.1–2.3) mg/kg
same,effect of higher 10 mg/kg dose on morphine pain relief (tail flick),"CD-1 mice [2]; 10 mg/kg i.v. vs 1 mg/kg i.v., 24 h, then 3.2 mg/kg morphine s.c.",less benefit than 1 mg/kg
same,binding to kappa opioid receptor (competition vs 3H-diprenorphine),[5],did not find any binding
same,binding to mu opioid receptor (competition vs 3H-diprenorphine),human mu opioid receptor,did not find any binding
same,half-life at 1 µM,in vitro [6],1.05 h
same,half-life at 1 µM,in vitro [7],2.6 h
same,effect on respiratory activity before and after morphine,CD-1 mice [8],no impact on respiratory activity before or after morphine
same,binding to delta opioid receptor (competition vs 3H-diprenorphine),[9],did not find any binding
same,logD at 24 h,physchem,2.26
"CN1CC[C@]23c4c5ccc(O)c4O[C@H]2[C@@H](O)C=C[C@H]3[C@H]1C5 [morphine, Morphine sulfate pentahydrate, reference compound]","A50 of morphine, Day 1 of tolerance regimen","CD-1 mice [1]; daily Vehicle i.t., tail flick",5.2 (3.9–7.5) mg/kg
same,"A50 of morphine, Day 4 of tolerance regimen","CD-1 mice [1]; daily Vehicle i.t., tail flick",110 (30–6300) mg/kg
same,"A50 (morphine anti-nociceptive potency), tail flick","CD-1 mice [2]; Vehicle i.t., 24 h, then 1–10 mg/kg morphine s.c., %MPE, 95% CI in parentheses",3.0 (2.5–3.7) mg/kg
same,"A50 (morphine anti-nociceptive potency), tail flick","CD-1 mice [2]; Vehicle i.v. (control of KUNB106 experiment, Fig. 9E), 24 h, then 1–5.6 mg/kg morphine s.c.",5.6 (4.4–∞) mg/kg
same,"A50 (morphine anti-nociceptive potency), tail flick","CD-1 mice [2]; Vehicle i.v. (control of KUNG65 experiment, Fig. 8F), 24 h, then 1–5.6 mg/kg morphine s.c.",3.6 (2.9–4.6) mg/kg
same,"A50 (morphine anti-nociceptive potency), paw incision","CD-1 mice [3]; Vehicle i.t., 24 h, then morphine s.c., %MPE, 95% CI in parentheses",2.4 (2.0–2.8) mg/kg
same,"A50 (morphine anti-nociceptive potency), paw incision","CD-1 mice [3]; Vehicle i.v. (control of KUNB106 experiment, Fig. S7B), then 1–3.2 mg/kg morphine s.c.",2.5 (2.0–∞) mg/kg
same,"A50 (morphine anti-nociceptive potency), paw incision","CD-1 mice [3]; Vehicle i.v. (control of KUNG65 experiment, Fig. S6B), then 1–3.2 mg/kg morphine s.c.",2.0 (1.4–3.0) mg/kg
same,constipation compared to saline-injected controls,CD-1 mice [10]; 1 mg/kg morphine s.c.,~ 40%
same,constipation compared to saline-injected controls (plateau),CD-1 mice [10]; 3.2–10 mg/kg morphine s.c.,~ 70%
same,A50 (morphine constipation potency),"CD-1 mice [10]; Vehicle i.t., 24 h, then morphine s.c., 6-h AUC, %MPE, 95% CI in parentheses",0.67 (0.32–0.94) mg/kg
same,"A50 (morphine anti-nociceptive potency), HIV neuropathy","CD-1 mice [4]; Vehicle i.t. on day 20, 24 h, then morphine s.c.",4.2 (3.7–4.8) mg/kg
same,"A50 (morphine reward potency, CPP % Difference Score)",CD-1 mice [11],5.1 (2.7–7.7) mg/kg
